Laboratory results: patent US20210283056A1, “COMPOSITIONS FOR THERAPEUTICS PRESCREENING” (BARCODE DIAGNOSTICS LTD., priority 2018, published 2021)
Read-outs that look alike come from different tables or passages of the source.

Experiments:
[1] = tested on: triple negative breast cancer tumors; assay: Barcode analysis in live and dead tumor cells after injection of liposome mixes; type: in vivo, BALB/c female mice; details: 5%
Text: FIGS. 1A-D: Detection of barcodes from liposome mixes with equal relative drug concentrations. […] Potency of the drugs was defined as the ratio of the amount of a barcode in dead cells to the amount of that barcode in live cells. (1D) A bar chart showing fluorescence from dead cells after treatment with two mixes of liposomes.
Each drug has its own specific effective therapeutic dose (ETD), and in order to test efficacy it is reasonable that each liposome mix (a mix of all three types of liposomes to be injected together) should have the same relative amount of each drug. That is, in order to determine an ideal dose, batches of mixed liposomes were generated in which all three drugs were present in a concentration that was either 5%, 1% or 0.1% of the effective therapeutic dose. Table 2 provides the amounts (in ul) of each liposome batch that were added to the mix in order to provide each total dose.
Cell from a triple negative breast cancer tumor were transplanted to the fat pad of BALB/c female mice and allowed to grow to form tumors in the mice. The mice were separated into 3 groups and then each group was injected with the 5%, 1% or 0.1% liposome mixes. 48 hours post injection the tumors were excised, and live/dead cell analysis was performed by FACS, followed by barcode analysis in live and dead cells separately.

[2] = tested on: Cells growing in culture; assay: Barcode quantification by Real Time PCR, dead vs. live cells; type: cell-based
Method: Cells growing in culture were treated with the liposome mixes and 48 hours after exposure the cell were subjected to viability assay. Dead cells from each study group (in triplicates) were first pelleted by centrifugation of supernatant and kept at −20 C until further analysis. Fresh medium supplemented with 10% Presto Blue Reagent (ThermoFisher Scientific) was added to cells and incubated at 37 C for about 90 minutes. 100 ul of each well was transferred to a black 96 wells plate and Fluorescence was recorded ([…]). Viability was calculated as Fluorescence of each sample relative to fluorescence of non-treated cells. Both mixes killed a similar amount of cells. Immediately following the viability assay, adherent cells were detached by addition of trypsin to the wells. Barcode analysis by Real Time PCR was performed as follows. The different barcodes were analyzed using a ThermoFisher Scientific Quantstudiol PCR System. The assay was run with TaqMan Fast Advanced master mix (ThermoFisher Scientific), primers (IDT) and a barcode specific probe labeled on the 5′ end with fluorescent FAM dye and on its 3′ end with a nonfluorescent quencher linked to a Minor Groove Binder (MGB) (ThermoFisher Scientific). […] After preparation of all dilutions, Real Time PCR was used to validate the standard curve. A reaction was run for all barcodes together. Reaction settings were as follow: 2 μL of sample was run in a Real Time Quantstudiol PCR instrument, using fast template protocol. Each sample was run in duplicate. Each barcode tested was compared to a standard curve run on the same plate. Each barcode reaction comprised at least 4 NTCs. In the Set Up, target (barcode tested), task (sample=Unknown/Standard/NTC), name and biological group were assigned to each sample. […] Analysis calculated average amount of barcode copies between replicate samples. This quantity was obtained for 2 μl of sample (volume of sample in RT-PCR reaction) and was adjusted to the final volume of the sample. The ratio of each barcode found in dead vs. live cells was calculated.

[3] = tested on: 4T1 derived cancers and metastases; details: cited from earlier work; for Effect on tumor growth: Kiew et al., 2012
[4] = first batch of liposomes (equal liposome number)

## Nc1ccn([C@@H]2O[C@H](CO)[C@@H](O)C2(F)F)c(=O)n1 [Gemcitabine]
[1]; 1% or 0.1% mixes, patent regards it as likely artifact
  Effectiveness relative to the other two drugs: > 10 fold
[1]; 1% or 0.1% of ETD liposome mixes, 48 hours post injection
  Potency (barcode in dead cells to live cells): most effective treatment
[2]; [4]
  Effective at killing the cells: effective
[3]; first couple of days of treatment
  Effect on tumor growth: retards tumor growth
[3]; later time points
  Effect on tumor growth: not be effective

## N.N.[Cl][Pt][Cl] [cisplatin]
[3]; reported
  Sensitivity of 4T1 derived cancers and metastases: highly sensitive

## COc1cccc2c1C(=O)c1c(O)c3c(c(O)c1C2=O)C[C@@](O)(C(=O)CO)C[C@@H]3O[C@H]1C[C@H](N)[C@H](O)[C@H](C)O1 [doxorubicin]
[2]; [4]
  Effective at killing the cells: effective
[2]; second batch of liposomes (equal relative drug concentration)
  Effective at killing the cells: effective
[3]; reported
  Resistance of 4T1 cells: become resistant
  Sensitivity of 4T1 derived cancers and metastases: less so
